Results taken from patent US20200339953A1, “HEMATOPOIETIC STEM AND PROGENITOR CELL THERAPY” (priority 2010, published 2020).
“Also recorded” adds a separate entry of the source.

Assays:
CD34^+ cells = experiment: Whole genome expression arrays (Affymetrix GeneChip); assay type: cell-based, human
Protocol: Human umbilical cord blood and pre-isolated CD34^+ cells from human umbilical cord blood were purchased from Stem Cell Technologies Inc. (Vancouver, BC, Canada). Cells were incubated in either low molecular weight dextran with 5% human serum albumin media (LMD/5% HSA) or Stem Span media (Stem Cells Technology Inc.) for ex vivo treatment with 16,16-dimethyl PGE2. Total RNA was isolated from incubated cells using a Pico Pure RNA Isolation Kit (Molecular Devices, Sunnyvale, Calif.).
Biotinylated amplified RNA (aRNA) was prepared using the standard protocol for MessageAmp II aRNA Amplification Kit (Applied Biosystems/Ambion, Austin, Tex.) and the optional Second Round Amplification; the copy RNA (cRNA) was transcribed into biotin labeled aRNA using MessageAmp II Biotin Enhanced Kit (Applied Biosystems/Ambion, Austin, Tex.) according to the manufacturer's instructions. Biotin labeled aRNA was purified and fragmented according to the Applied Biosystems protocols. 20 μg of fragmented aRNA was hybridized to Human Genome U133 Plus 2.0 GeneChips (Affymetrix Inc., Santa Clara, Calif.) for 16 hrs at 45° C.
The GeneChips were washed and stained in the Affymetrix Fluidics Station 450 and scanned using the Affymetrix GeneChip Scanner 3000 7G. The image data were analyzed using Affymetrix Expression Console software and default analysis settings. GeneChip expression data were normalized by log scale robust multi-array analysis (RMA) and visualized in Spotfire for Genomics 3.1 (Tibco Spotfire, Palo Alto, Calif.). Pathway analysis was performed in MetaCore. (GeneGo, St. Joseph, Mich.).
GeneChip technology was used to determine the effects of time (incubation for 5, 15, 20, 30, 40, 60, 80, 100, 120, 180, or 240 minutes), temperature (incubation at 4° C., 25° C., or 37° C.), and final 16,16-dimethyl PGE2 concentration (0.1 μm, 1 μM, 10 μM, 50 μM, or 100 μM) on cellular gene expression.
Gene expression profiles were analyzed for CD34^+ cells incubated with 10 μM 16,16-dimethyl PGE2 at 37° C. for 5, 15, 30, 60, or 120 minutes. For incubation (e.g., treatment) periods less than 120 minutes, the cells were washed in media to remove the 16,16-dimethyl PGE2 and then the cells were incubated for the remaining period in media to allow time for changes in gene expression to take place (See FIG. 5).

[1] = test system: Whole cord blood cells or CD34^+ cells; experiment: Colony Forming Unit-Cell assay (CFU-C); assay type: cell-based, human
Protocol: Colony Forming Unit-Cell assays (CFU-C) were performed using a methyl cellulose assay kit, MethoCult® GF H4034 (Stem Cell Technologies, Vancouver, CA). Whole cord blood cells or CD34^+ cells obtained from Stem Cell Technologies (Vancouver, Canada) were aliquoted equally in Eppendorf tubes and treated ex vivo at a range of 16,16-dimethyl PGE2 concentrations (10 μM to 100 μM) or DMSO control; temperatures (4° C., 22° C., or 37° C.) for 120 minutes in LMD/5% HSA media. After treatment, the cells were washed in LMD/5% HSA media and resuspended in Iscove's Media containing 2% Fetal Bovine Serum (FBS) (Stem Cell Technologies). Cells were then loaded into a MethoCult® assay tube, mixed, and plated in 35 mm tissue culture plates according to the manufacturer's instructions. Unless otherwise mentioned, the equivalent of 10,000 WCB cells and 250 CD34^+ cells were loaded into each plate.

[2] = test system: CXCR4 cell-surface protein on CD34^+ cord blood cells; experiment: CXCR4 surface expression analysis by flow cytometry; assay type: cell-based, human; details: 10 μM; for CD34+ cord blood cells with detectable CXCR4 expression: 2 hours at 37° C.
Protocol: CD34^+ cord blood cells were treated with 10 μM 16,16-dimethyl PGE2 or DMSO in StemSpan media for 2 hours at 37° C. or for 1 hour at 4° C. After treatment, the cells were washed in StemSpan media, centrifuged for 10 minutes at 300× g and resuspended in StemSpan media containing cytokines (e.g., CC100) to promote CD34^+ cell survival and incubated at 37° C. for 1, 6 and 24 hours. After the 1, 6 or 24 hour incubation, cells were centrifuged and resuspended in staining media containing the Lineage cocktail, 1-FITC, […], CXCR4(CD184)-PE, and incubated on ice for 15 minutes. Fresh staining media was then added to the cells, and the cells were centrifuged at 300 g for 10 minutes, twice. The stained cells were acquired on a Guava EasyCyte 8HT and analysis was performed using FloJo Software Package (Treestar).
CXCR4 cell-surface expression is important for stem cell homing to the bone marrow hematopoietic niche. […] Cells were treated for 2 hours at 37 or for 1 hour at 4° C. with either 10 μM 16,16-dimethyl PGE2 or DMSO control in StemSpan media. CXCR4 cell-surface protein expression was assessed 1, 6 and 24 hours after the end of treatment by flow cytometry.

[3] = test system: Murine whole bone marrow (WBM) cells; experiment: Colony forming Unit Spleen at day 12 (CFU-S12) assay; assay type: in vivo, C57Bl/6 mice; details: 10 μM; for CFU-S12 number: WBM
Protocol: Colony forming Unit Spleen at day 12 (CFU-S12) assays were performed as described in North et al., Nature. 2007 Jun. 21; 447(7147):1007-11. […] After treatment, the cells were washed by centrifugation and resuspended in PBS for tail-vein injection into C57Bl/6 recipients (2×5/treatment) that had been previously lethally irradiated at 10.5Gy. 50,000 cells were injected per recipient. […]

CCCCC(C)(C)[C@H](O)/C=C/[C@H]1[C@H](O)CC(=O)[C@@H]1C/C=C\CCCC(=O)O [16,16-dimethyl PGE2]
signature gene expression changes after very short incubation (CD34^+ cells; 10 μM, 37° C., 5-15 minutes, assessed after 120 minutes total): minimal gene expression changes | incubation time after which gene expression changes were apparent (CD34^+ cells; 10 μM, 37° C., assessed after 120 minutes total): 30 min | genes downregulated (CD34^+ cells; 10 μM, 120 minutes, 37° C.): 243 genes | genes modulated at a statistically significant level, total (CD34^+ cells; 10 μM, 120 minutes, 37° C.): 608 genes | genes upregulated (CD34^+ cells; 10 μM, 120 minutes, 37° C.): 365 genes | fold increase in CXCR4 expression (CD34^+ cells; 10 μM, 120 minutes, 37° C., relative to DMSO/vehicle treated control): 18 fold | fold increase in CREM expression (FIG. 4) (CD34^+ cells; 10 μM, vs vehicle treated CD34+ cells): 8 fold | Fold change (increases) AREG (CD34^+ cells; Amphiregulin, CD34+ cells, 10 μM, 120 minutes, 37° C. vs DMSO): 23.32 fold | gene expression changes at 100 μM at 4° C. and 25° C. compared with 10 μM at 37° C. (CD34^+ cells; CD34+ cells): smaller gene expression changes | gene expression associated with apoptosis or cell death (CD34^+ cells; CD34+ cells incubated at 37° C.): no increase in gene expression associated with apoptosis or cell death; also recorded: no increase in gene expression of apopotosis or cell death associated genes | concentration at which the full gene expression signature was reproduced (CD34^+ cells; CD34+ cells, 120 minutes, 37° C., no further substantial changes above): 10 µM | Fold change (increases) CXCR4 (CD34^+ cells; CXC chemokine Receptor 4, CD34+ cells, 10 μM, 120 minutes, 37° C. vs DMSO): 7.33 fold | Fold change (increases) DUSP4 (CD34^+ cells; Dual specificity protein phosphatase 4, CD34+ cells, 10 μM, 120 minutes, 37° C. vs DMSO): 25.75 fold | Fold change (increases) FOSL2 (CD34^+ cells; Fos-related antigen 2, CD34+ cells, 10 μM, 120 minutes, 37° C. vs DMSO): 8.11 fold | Fold change (increases) GEM (CD34^+ cells; GTP-binding protein GEM, CD34+ cells, 10 μM, 120 minutes, 37° C. vs DMSO): 28.18 fold | Fold change (increases) HAS1 (CD34^+ cells; Hyaluronan synthase 1, CD34+ cells, 10 μM, 120 minutes, 37° C. vs DMSO): 55.83 fold | Fold change (increases) NR4A2 (CD34^+ cells; Nuclear receptor related 1 protein, CD34+ cells, 10 μM, 120 minutes, 37° C. vs DMSO): 22.30 fold | Fold change (increases) REN (CD34^+ cells; Renin, CD34+ cells, 10 μM, 120 minutes, 37° C. vs DMSO): 19.50 fold | CXCR4 RNA expression (CD34^+ cells; WCB or CD34+ cells, 10 μM, 2 hours, 37° C. vs DMSO or 10 μM 1 hour 4° C.): increase in CXCR4 RNA expression | Fold change (increases) CREM (CD34^+ cells; cAMP-responsive element modulator, CD34+ cells, 10 μM, 120 minutes, 37° C. vs DMSO): 12.90 fold | Fold change (increases) COL1A1 (CD34^+ cells; collagen, type I, alpha 1, CD34+ cells, 10 μM, 120 minutes, 37° C. vs DMSO): 10.50 fold | CFU-C colony formation (FIG. 19D) ([1]; CD34+ cells treated at 37° C. vs DMSO or 4° C.): increase in CFU-C colony formation | ability to form colony forming units (FIG. 11) ([1]; CD34+ cells, 10 μM, 120 minutes, 37° C. vs vehicle or 4° C.): does not decrease the ability of the cells to form colony forming units | proliferative potential (CFU-C) ([1]; whole cord blood cells or CD34+ cells, high temperatures, relatively long incubation periods vs other conditions): higher proliferative potential | CXCR4 expression after treatment at 4° C. ([2]; 4° C.): did not result in an increase in CXCR4 expression | CD34+ cord blood cells with detectable CXCR4 expression ([2]; 1 hour after treatment): 48% | CD34+ cord blood cells with detectable CXCR4 expression ([2]; 6 hours post-treatment): 34.7% | level of CXCR4 compared to DMSO treated cells ([2]; 24 hours post-treatment): substantially the same | number of hematopoietic progenitor cells (FIG. 19A) ([3]; 37° C. incubation): increases the number of hematopoietic progenitor cells | CFU-S12 number ([3]; 4° C. for 1 hour): 8.5±1.3 colonies | CFU-S12 number ([3]; 37° C. for 1 hour): 11.2±1.5 | CFU-S number compared to DMSO treated cells ([3]; murine bone marrow, 4° C. treatment): small increase in CFU-S number
